Test results from ChEMBL document CHEMBL1201862, “PubChem BioAssay data set” (2004).
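Where inhibition never reached the appropriate level, the endpoint shown equals the highest concentration tested. Otherwise, values were interpolated linearly from a five-concentration, 48-hour dose response in 96-well plates. Abbreviation: GI50, concentration required for 50% inhibition of growth.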 The source made the active and inactive calls. Cut-off read from the data, not from the text of the source: active = GI50 up to about 1.1 µM and inactive = higher.

Experiments:
Test in all cases: inhibition of tumour cell growth, NCI panel, 48 h
[1] = tested on: 786-0
[2] = tested on: A498
[3] = tested on: A549
[4] = tested on: ACHN
[5] = tested on: CCRF-CEM
[6] = tested on: COLO 205
[7] = tested on: DLD-1
[8] = tested on: DMS-114
[9] = tested on: EKVX
[10] = tested on: HCC 2998
[11] = tested on: HCT-116
[12] = tested on: HL-60
[13] = tested on: HOP-62
[14] = tested on: HOP-92
[15] = tested on: HT-29
[16] = tested on: IGROV-1
[17] = tested on: K562
[18] = tested on: KM-20L2
[19] = tested on: KM12
[20] = tested on: LOX IMVI
[21] = tested on: LXFL 529
[22] = tested on: M14
[23] = tested on: M19-MEL
[24] = tested on: MOLT-4
[25] = tested on: Malme-3M
[26] = tested on: NCI-H226
[27] = tested on: NCI-H23
[28] = tested on: NCI-H460
[29] = tested on: NCI-H522
[30] = tested on: OVCAR-3
[31] = tested on: OVCAR-5
[32] = tested on: OVCAR-8
[33] = tested on: RPMI-8226
[34] = tested on: RXF 393
[35] = tested on: SF-268
[36] = tested on: SF-295
[37] = tested on: SF-539
[38] = tested on: SK-MEL-28
[39] = tested on: SK-MEL-2
[40] = tested on: SK-MEL-5
[41] = tested on: SK-OV-3
[42] = tested on: SNB-75
[43] = tested on: SNB-78
[44] = tested on: SW-620
[45] = tested on: TK-10
[46] = tested on: U-251
[47] = tested on: UACC-257
[48] = tested on: UACC-62
[49] = tested on: UO-31
[50] = tested on: XF498
[51] = tested on: CAKI-1
[52] = tested on: DMS-273
[53] = tested on: HCT-15
[54] = tested on: OVCAR-4
[55] = tested on: SN12C
[56] = tested on: SNB-19
[57] = tested on: SR

## C/C(CC(=O)Nc1ccc(C)cc1)=N\NC(N)=S
[1]
  GI50: > 100 µM (inactive)
[2]
  GI50: > 100 µM (inactive)
[3]
  GI50: > 100 µM (inactive)
[4]
  GI50: 79.4 µM (inactive)
[5]
  GI50: > 100 µM (inactive)
[6]
  GI50: > 100 µM (inactive)
[7]
  GI50: 97.7 µM (inactive)
[8]
  GI50: > 100 µM (inactive)
[9]
  GI50: > 100 µM (inactive)
[10]
  GI50: > 100 µM (inactive)
[11]
  GI50: > 100 µM (inactive)
[12]
  GI50: > 100 µM (inactive)
[13]
  GI50: > 100 µM (inactive)
[14]
  GI50: > 100 µM (inactive)
[15]
  GI50: > 100 µM (inactive)
[16]
  GI50: > 100 µM (inactive)
[17]
  GI50: 64.4 µM (inactive)
[18]
  GI50: > 100 µM (inactive)
[19]
  GI50: 77.4 µM (inactive)
[20]
  GI50: 54.8 µM (inactive)
[21]
  GI50: 72.3 µM (inactive)
[22]
  GI50: 66.7 µM (inactive)
[23]
  GI50: > 100 µM (inactive)
[24]
  GI50: > 100 µM (inactive)
[25]
  GI50: > 100 µM (inactive)
[26]
  GI50: > 100 µM (inactive)
[27]
  GI50: > 100 µM (inactive)
[28]
  GI50: > 100 µM (inactive)
[29]
  GI50: 94 µM (inactive)
[30]
  GI50: > 100 µM (inactive)
[31]
  GI50: > 100 µM (inactive)
[32]
  GI50: > 100 µM (inactive)
[33]
  GI50: > 100 µM (inactive)
[34]
  GI50: > 100 µM (inactive)
[35]
  GI50: > 100 µM (inactive)
[36]
  GI50: > 100 µM (inactive)
[37]
  GI50: > 100 µM (inactive)
[38]
  GI50: > 100 µM (inactive)
[39]
  GI50: > 100 µM (inactive)
[40]
  GI50: > 100 µM (inactive)
[41]
  GI50: > 100 µM (inactive)
[42]
  GI50: > 100 µM (inactive)
[43]
  GI50: > 100 µM (inactive)
[44]
  GI50: > 100 µM (inactive)
[45]
  GI50: > 100 µM (inactive)
[46]
  GI50: > 100 µM (inactive)
[47]
  GI50: > 100 µM (inactive)
[48]
  GI50: > 100 µM (inactive)
[49]
  GI50: > 100 µM (inactive)
[50]
  GI50: > 100 µM (inactive)

## NNC(=S)N/N=C/C(Cl)=C(\Cl)C(=O)O
[1]
  GI50: > 100 µM (inactive)
[2]
  GI50: > 100 µM (inactive)
[3]
  GI50: > 100 µM (inactive)
[4]
  GI50: > 100 µM (inactive)
[51]
  GI50: > 100 µM (inactive)
[5]
  GI50: > 100 µM (inactive)
[7]
  GI50: > 100 µM (inactive)
[8]
  GI50: > 100 µM (inactive)
[52]
  GI50: > 100 µM (inactive)
[9]
  GI50: > 100 µM (inactive)
[10]
  GI50: > 100 µM (inactive)
[11]
  GI50: > 100 µM (inactive)
[53]
  GI50: > 100 µM
[12]
  GI50: > 100 µM (inactive)
[14]
  GI50: > 100 µM (inactive)
[15]
  GI50: > 100 µM (inactive)
[16]
  GI50: > 100 µM (inactive)
[17]
  GI50: > 100 µM (inactive)
[18]
  GI50: > 100 µM (inactive)
[20]
  GI50: > 100 µM (inactive)
[21]
  GI50: > 100 µM (inactive)
[22]
  GI50: > 100 µM (inactive)
[23]
  GI50: > 100 µM (inactive)
[24]
  GI50: > 100 µM (inactive)
[25]
  GI50: > 100 µM (inactive)
[26]
  GI50: > 100 µM (inactive)
[27]
  GI50: > 100 µM (inactive)
[28]
  GI50: > 100 µM (inactive)
[29]
  GI50: 0.228 µM (active)
[30]
  GI50: > 100 µM (inactive)
[54]
  GI50: > 100 µM (inactive)
[31]
  GI50: > 100 µM (inactive)
[32]
  GI50: > 100 µM (inactive)
[33]
  GI50: > 100 µM (inactive)
[34]
  GI50: > 100 µM (inactive)
[35]
  GI50: > 100 µM (inactive)
[36]
  GI50: > 100 µM (inactive)
[37]
  GI50: > 100 µM (inactive)
[38]
  GI50: > 100 µM (inactive)
[39]
  GI50: > 100 µM (inactive)
[40]
  GI50: > 100 µM (inactive)
[55]
  GI50: > 100 µM (inactive)
[56]
  GI50: > 100 µM (inactive)
[42]
  GI50: > 100 µM (inactive)
[43]
  GI50: > 100 µM (inactive)
[57]
  GI50: > 100 µM (inactive)
[44]
  GI50: > 100 µM (inactive)
[45]
  GI50: > 100 µM (inactive)
[46]
  GI50: > 100 µM (inactive)
[47]
  GI50: > 100 µM (inactive)
[48]
  GI50: > 100 µM (inactive)
[49]
  GI50: > 100 µM (inactive)
[50]
  GI50: > 100 µM (inactive)
